Results as given in ChEMBL document CHEMBL1201862, “PubChem BioAssay data set” (2004).
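48-hour exposure; five concentrations; linearly interpolated endpoints. At the GI50, growth is halved.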 Calls of active or inactive are those of the source. Cut-off read from the data, not from the text of the source: active = GI50 up to about 1.1 µM and inactive = higher.

Columns and labels:
Experiment in all cases: growth of human tumour cells (NCI), 48 h
OVCAR-4 = system: OVCAR-4
NCI-H522 = system: NCI-H522
NCI-H226 = system: NCI-H226
SK-MEL-2 = system: SK-MEL-2
KM12 = system: KM12
SNB-19 = system: SNB-19
COLO 205 = system: COLO 205
SW-620 = system: SW-620
K562 = system: K562
ACHN = system: ACHN
HL-60 = system: HL-60
NCI-H460 = system: NCI-H460
MOLT-4 = system: MOLT-4
UO-31 = system: UO-31
SK-OV-3 = system: SK-OV-3
HCT-116 = system: HCT-116
Malme-3M = system: Malme-3M
M14 = system: M14
RPMI-8226 = system: RPMI-8226
SK-MEL-5 = system: SK-MEL-5
CAKI-1 = system: CAKI-1
PC-3 = system: PC-3
HT-29 = system: HT-29
IGROV-1 = system: IGROV-1
UACC-62 = system: UACC-62
HOP-92 = system: HOP-92
MDA-MB-435 = system: MDA-MB-435
NCI/ADR-RES = system: NCI/ADR-RES
TK-10 = system: TK-10
HCC 2998 = system: HCC 2998
NCI-H23 = system: NCI-H23
Hs-578T = system: Hs-578T
A549 = system: A549
RXF 393 = system: RXF 393
UACC-257 = system: UACC-257
T47D = system: T47D
SNB-75 = system: SNB-75
OVCAR-5 = system: OVCAR-5
SK-MEL-28 = system: SK-MEL-28
A498 = system: A498
CCRF-CEM = system: CCRF-CEM
BT-549 = system: BT-549
HCT-15 = system: HCT-15
786-0 = system: 786-0
EKVX = system: EKVX
OVCAR-3 = system: OVCAR-3
LOX IMVI = system: LOX IMVI
SF-295 = system: SF-295
HOP-62 = system: HOP-62
MDA-MB-231 = system: MDA-MB-231
SF-268 = system: SF-268
OVCAR-8 = system: OVCAR-8
SR = system: SR
DU-145 = system: DU-145
U-251 = system: U-251
SN12C = system: SN12C
MCF7 = system: MCF7
MDA-N = system: MDA-N
SF-539 = system: SF-539

## Cc1ccc(SC[C@@]2(C(F)F)NC(=O)NC2=O)cc1
OVCAR-4
  GI50: > 100 µM (inactive)
NCI-H522
  GI50: > 100 µM (inactive)
NCI-H226
  GI50: > 100 µM (inactive)
SK-MEL-2
  GI50: > 100 µM (inactive)
KM12
  GI50: > 100 µM (inactive)
SNB-19
  GI50: > 100 µM (inactive)
COLO 205
  GI50: > 100 µM (inactive)
SW-620
  GI50: > 100 µM (inactive)
K562
  GI50: > 100 µM (inactive)
ACHN
  GI50: > 100 µM (inactive)
HL-60
  GI50: > 100 µM (inactive)
NCI-H460
  GI50: > 100 µM (inactive)
MOLT-4
  GI50: > 100 µM (inactive)
UO-31
  GI50: > 100 µM (inactive)
SK-OV-3
  GI50: > 100 µM (inactive)
HCT-116
  GI50: > 100 µM (inactive)
Malme-3M
  GI50: > 100 µM (inactive)
M14
  GI50: > 100 µM (inactive)
RPMI-8226
  GI50: > 100 µM (inactive)
SK-MEL-5
  GI50: > 100 µM (inactive)
CAKI-1
  GI50: > 100 µM (inactive)
PC-3
  GI50: > 100 µM (inactive)
HT-29
  GI50: > 100 µM (inactive)
IGROV-1
  GI50: > 100 µM (inactive)
UACC-62
  GI50: > 100 µM (inactive)
HOP-92
  GI50: > 100 µM (inactive)
MDA-MB-435
  GI50: > 100 µM (inactive)
NCI/ADR-RES
  GI50: > 100 µM (inactive)
TK-10
  GI50: > 100 µM (inactive)
HCC 2998
  GI50: > 100 µM (inactive)
NCI-H23
  GI50: > 100 µM (inactive)
Hs-578T
  GI50: > 100 µM (inactive)
A549
  GI50: > 100 µM (inactive)
RXF 393
  GI50: > 100 µM (inactive)
UACC-257
  GI50: > 100 µM (inactive)
T47D
  GI50: > 100 µM (inactive)
SNB-75
  GI50: > 100 µM (inactive)
OVCAR-5
  GI50: > 100 µM (inactive)
SK-MEL-28
  GI50: > 100 µM (inactive)
A498
  GI50: > 100 µM (inactive)
CCRF-CEM
  GI50: > 100 µM (inactive)
BT-549
  GI50: > 100 µM (inactive)
HCT-15
  GI50: > 100 µM
786-0
  GI50: > 100 µM (inactive)
EKVX
  GI50: > 100 µM (inactive)
OVCAR-3
  GI50: > 100 µM (inactive)
LOX IMVI
  GI50: > 100 µM (inactive)
SF-295
  GI50: > 100 µM (inactive)
HOP-62
  GI50: > 100 µM (inactive)
MDA-MB-231
  GI50: > 100 µM (inactive)
SF-268
  GI50: > 100 µM (inactive)
OVCAR-8
  GI50: > 100 µM (inactive)
SR
  GI50: > 100 µM (inactive)
DU-145
  GI50: > 100 µM (inactive)
U-251
  GI50: > 100 µM (inactive)

## Nc1nc(N)c2ncn(-c3ccccc3)c2n1
NCI-H522
  GI50: > 100 µM (inactive)
KM12
  GI50: 24.2 µM (inactive)
ACHN
  GI50: > 100 µM (inactive)
MOLT-4
  GI50: 29.6 µM (inactive)
UO-31
  GI50: 68.2 µM (inactive)
SK-OV-3
  GI50: > 100 µM (inactive)
SN12C
  GI50: 88.3 µM (inactive)
HCT-116
  GI50: > 100 µM (inactive)
M14
  GI50: > 100 µM (inactive)
MCF7
  GI50: 63.8 µM (inactive)
CAKI-1
  GI50: 82.6 µM (inactive)
PC-3
  GI50: > 100 µM (inactive)
HT-29
  GI50: > 100 µM (inactive)
IGROV-1
  GI50: 36.3 µM (inactive)
UACC-62
  GI50: 71 µM (inactive)
HOP-92
  GI50: > 100 µM (inactive)
MDA-MB-435
  GI50: > 100 µM (inactive)
NCI/ADR-RES
  GI50: > 100 µM (inactive)
TK-10
  GI50: > 100 µM (inactive)
HCC 2998
  GI50: 48.4 µM (inactive)
NCI-H23
  GI50: > 100 µM (inactive)
Hs-578T
  GI50: 52.6 µM (inactive)
A549
  GI50: 48.9 µM (inactive)
RXF 393
  GI50: 57.9 µM (inactive)
T47D
  GI50: > 100 µM (inactive)
OVCAR-5
  GI50: > 100 µM (inactive)
SK-MEL-28
  GI50: > 100 µM (inactive)
A498
  GI50: > 100 µM (inactive)
CCRF-CEM
  GI50: 23.7 µM (inactive)
BT-549
  GI50: > 100 µM (inactive)
HCT-15
  GI50: > 100 µM
OVCAR-3
  GI50: 89.9 µM (inactive)
SF-295
  GI50: > 100 µM (inactive)
MDA-MB-231
  GI50: > 100 µM (inactive)
SF-268
  GI50: > 100 µM (inactive)
OVCAR-8
  GI50: > 100 µM (inactive)
DU-145
  GI50: > 100 µM (inactive)

## CN(C)CCSC1=Nc2ccc(Cl)cc2C(c2ccccc2Cl)=NC1
OVCAR-4
  GI50: > 100 µM (inactive)
SK-MEL-2
  GI50: > 100 µM (inactive)
K562
  GI50: 34.6 µM (inactive)
HL-60
  GI50: 30.3 µM (inactive)
MOLT-4
  GI50: 31.4 µM (inactive)
IGROV-1
  GI50: 92.5 µM (inactive)
MDA-MB-435
  GI50: 17.9 µM (inactive)
Hs-578T
  GI50: 21.4 µM (inactive)
SNB-75
  GI50: 30.1 µM (inactive)
BT-549
  GI50: 42.3 µM (inactive)

## S=C1C(CCCOCc2ccccc2)C2CCCC23CC2(CCN13)OCCS2 (configuration not stated)
OVCAR-4
  GI50: > 10 µM (inactive)
NCI-H522
  GI50: > 10 µM (inactive)
NCI-H226
  GI50: > 10 µM (inactive)
SK-MEL-2
  GI50: > 10 µM (inactive)
KM12
  GI50: > 10 µM (inactive)
SNB-19
  GI50: > 10 µM (inactive)
COLO 205
  GI50: > 10 µM (inactive)
SW-620
  GI50: > 10 µM (inactive)
K562
  GI50: > 10 µM (inactive)
ACHN
  GI50: > 10 µM (inactive)
HL-60
  GI50: > 10 µM (inactive)
NCI-H460
  GI50: > 10 µM (inactive)
MOLT-4
  GI50: > 10 µM (inactive)
UO-31
  GI50: > 10 µM (inactive)
SK-OV-3
  GI50: > 10 µM (inactive)
SN12C
  GI50: > 10 µM (inactive)
Malme-3M
  GI50: > 10 µM (inactive)
M14
  GI50: > 10 µM (inactive)
RPMI-8226
  GI50: > 10 µM (inactive)
MCF7
  GI50: > 10 µM (inactive)
SK-MEL-5
  GI50: > 10 µM (inactive)
CAKI-1
  GI50: > 10 µM (inactive)
PC-3
  GI50: > 10 µM (inactive)
MDA-N
  GI50: > 10 µM (inactive)
HT-29
  GI50: > 10 µM (inactive)
IGROV-1
  GI50: > 10 µM (inactive)
HOP-92
  GI50: > 10 µM (inactive)
MDA-MB-435
  GI50: > 10 µM (inactive)
NCI/ADR-RES
  GI50: > 10 µM (inactive)
TK-10
  GI50: > 10 µM (inactive)
HCC 2998
  GI50: > 10 µM (inactive)
NCI-H23
  GI50: > 10 µM (inactive)
Hs-578T
  GI50: > 10 µM (inactive)
RXF 393
  GI50: > 10 µM (inactive)
UACC-257
  GI50: > 10 µM (inactive)
T47D
  GI50: > 10 µM (inactive)
SF-539
  GI50: > 10 µM (inactive)
SNB-75
  GI50: > 10 µM (inactive)
OVCAR-5
  GI50: > 10 µM (inactive)
SK-MEL-28
  GI50: > 10 µM (inactive)
A498
  GI50: > 10 µM (inactive)
CCRF-CEM
  GI50: > 10 µM (inactive)
HCT-15
  GI50: > 10 µM
786-0
  GI50: > 10 µM (inactive)
EKVX
  GI50: > 10 µM (inactive)
OVCAR-3
  GI50: > 10 µM (inactive)
LOX IMVI
  GI50: > 10 µM (inactive)
SF-295
  GI50: > 10 µM (inactive)
HOP-62
  GI50: > 10 µM (inactive)
MDA-MB-231
  GI50: > 10 µM (inactive)
SF-268
  GI50: > 10 µM (inactive)
OVCAR-8
  GI50: > 10 µM (inactive)
SR
  GI50: > 10 µM (inactive)
DU-145
  GI50: > 10 µM (inactive)
U-251
  GI50: > 10 µM (inactive)
